Earlier results in patent US8048850B2, “Covalent conjugates between artemisinin-related endoperoxides and iron-carrying proteins and methods of use” (University of Washington, priority 2002, dated 2011).

Conditions: cancer patient; oral dose of 50 mg per day; intramuscular dose of 60 mg/day; period of 9 months

SMILES: C[C@H]1[C@H](OC(=O)CCC(=O)O)O[C@@H]2O[C@@]3(C)CC[C@H]4[C@H](C)CC[C@@H]1[C@@]24OO3 [artesunate]
- adverse side effects: No apparent adverse side effects
